Values quoted from earlier work in patent US20050009782A1, “Antiviral charged polymers that exhibit resistance to lysosomal degradation during kidney filtration and renal passage, compositions and methods of use thereof” (priority 2003, published 2005).

What was measured:
HIV [1] = settings: for In vitro activity: listed virus = activity demonstrated; for inhibition of HIV replication: in vitro; for inhibition of HIV replication / inhibition of HIV in vitro: reported in literature
HSV-1 = settings: listed virus = activity demonstrated
measles = settings: listed virus = activity demonstrated
CMV = settings: for In vitro activity: listed virus = activity demonstrated; for inhibition of cytomegaloviruses in vitro: reported in literature
mumps = settings: listed virus = activity demonstrated
Chlamydia = settings: listed organism = activity demonstrated
RLV = settings: listed virus = activity demonstrated
HSV = settings: for In vitro activity: listed virus = activity demonstrated; for inhibition of herpes simplex viruses in vitro: reported in literature
HSV-2 = settings: listed virus = activity demonstrated
HIV-1 = settings: listed virus = activity demonstrated
MLV = settings: listed virus = activity demonstrated
semlikiviruses = settings: reported in literature
paramyxoviruses = settings: reported in literature
Denge virus = settings: listed virus = activity demonstrated
HHV-7 = settings: listed virus = activity demonstrated
HIV [2] = tested on: HIV

2-acetamido-2-deoxy-3-O-sulfo(14)-beta-D-glycopyranan
In vitro activity (HIV [1]): HIV

Calcium spirulan
In vitro activity (HSV-1): HSV-1 | In vitro activity (measles): measles | In vitro activity (HIV [1]): HIV | In vitro activity (CMV): CMV | In vitro activity (mumps): mumps

iota-carrageenan
inhibition of HIV replication (HIV [1]): inhibit HIV replication

Fucoidin
inhibition of HIV replication (HIV [1]): inhibit HIV replication | In vitro activity (HIV [1]): HIV | In vitro activity (Chlamydia): Chlamydia

N[C@H]1C(O)O[C@H](COS(=O)(=O)O)[C@@H](O)[C@@H]1O (stereo partly drawn) [Glucosamine-6-sulfate (monosaccharide), Glucosamine-6-sulfate]
In vitro activity (HIV [1]): HIV

Sulfoevernan
inhibition of HIV replication (HIV [1]): inhibit HIV replication | In vitro activity (HIV [1]): HIV

Polyinosinic-polycytidylic acid
In vitro activity (HIV [1]): HIV

Curdlan sulfate
In vitro activity (HIV [1]): HIV | In vitro activity (CMV): CMV

Lentinan sulfate
inhibition of HIV replication (HIV [1]): inhibit HIV replication | In vitro activity (HIV [1]): HIV

Polyacetal polysulfate
In vitro activity (HIV [1]): HIV

N-carboxymethylchitosan-N,O-sulfate
In vitro activity (RLV): RLV | In vitro activity (HIV [1]): HIV

dextrin sulfate
inhibition of HIV replication (HIV [1]): inhibit HIV replication

3′ sulfogalactosylceramide [Sulfatide (3′ sulfogalactosylceramide)]
In vitro activity (HIV [1]): HIV

Sulfate dodecyl laminarapentaoside
In vitro activity (HIV [1]): HIV

Ribofuranan sulfate
In vitro activity (HIV [1]): HIV

Glycyrrhizin sulfate
In vitro activity (HIV [1]): HIV

Carboxymethylchitin
In vitro activity (HSV): HSV

kappa-carrageenan
inhibition of HIV replication (HIV [1]): inhibit HIV replication

Xylomannan sulfate
In vitro activity (HSV-2): HSV-2 | In vitro activity (HSV-1): HSV-1 | In vitro activity (HIV [1]): HIV

(14)-2-deoxy-2-sulfamido-3-O-sulfo-(14)-beta-D-glycopyranan
In vitro activity (HIV [1]): HIV

Achranthese bidentata polysaccharide sulfate
In vitro activity (HSV-1): HSV-1

Sulfated octadecyl ribofurnans
In vitro activity (HIV [1]): HIV

CCCCCCCCCCCCOS(=O)(=O)[O-].[Na+] [Sodium lauryl sulfate]
In vitro activity (HIV [1]): HIV | In vitro activity (HSV): HSV

Sulfated N-deacetylatedchitin
In vitro activity (HSV): HSV

Chondroitin polysulfate
In vitro activity (HIV [1]): HIV

Sulfated octadecyl maltohexaoside
In vitro activity (HIV [1]): HIV

Sulfated xylogalactans
In vitro activity (HIV-1): HIV-1

Prunellin
In vitro activity (HIV [1]): HIV

Heparin
In vitro activity (MLV): virus, MLV | inhibition of semlikiviruses in vitro (semlikiviruses): potent inhibitors | inhibition of influenza viruses in vitro (influenza viruses): potent inhibitors | inhibition of paramyxoviruses in vitro (paramyxoviruses): potent inhibitors | In vitro activity (Denge virus): ASFV, Denge | In vitro activity (ASFV): ASFV, Denge | In vitro activity (HHV-7): HHV-7 | inhibition of HIV replication (HIV [1]): inhibit HIV replication | In vitro activity (HIV [1]): HIV | inhibition of HIV in vitro (HIV [1]): potent inhibitors | inhibition of cytomegaloviruses in vitro (CMV): potent inhibitors | inhibition of herpes simplex viruses in vitro (HSV): potent inhibitors

Galactan sulfate
In vitro activity (HSV-1): HSV-1 | In vitro activity (HIV [1]): HIV

Pentosan polysulfate
inhibition of semlikiviruses in vitro (semlikiviruses): potent inhibitors | inhibition of influenza viruses in vitro (influenza viruses): potent inhibitors | inhibition of paramyxoviruses in vitro (paramyxoviruses): potent inhibitors | inhibition of HIV replication (HIV [1]): inhibit HIV replication | In vitro activity (HIV [1]): HIV | inhibition of HIV in vitro (HIV [1]): potent inhibitors | In vitro activity (Chlamydia): Chlamydia | inhibition of cytomegaloviruses in vitro (CMV): potent inhibitors | inhibition of herpes simplex viruses in vitro (HSV): potent inhibitors

sulfated cyclodextrins
inhibition of HIV replication (HIV [1]): inhibit HIV replication

dextran sulfate
inhibition of semlikiviruses in vitro (semlikiviruses): potent inhibitors | inhibition of influenza viruses in vitro (influenza viruses): potent inhibitors | inhibition of paramyxoviruses in vitro (paramyxoviruses): potent inhibitors | activity against HIV in vivo (HIV [2]; commercial dextran sulfate): poor activity | beneficial effect in vivo (HIV [2]; continuous infusion, subjects with symptomatic HIV infection, up to 14 days): lack of any demonstration of beneficial effect in vivo | inhibition of HIV replication (HIV [1]): inhibit HIV replication | inhibition of HIV in vitro (HIV [1]): potent inhibitors | inhibition of cytomegaloviruses in vitro (CMV): potent inhibitors | toxicity of continuous intravenous infusion (continuous infusion to maximally tolerated dose, subjects with symptomatic HIV infection, up to 14 days): toxic | toxicity in mammals and HIV patients (mammals and HIV patients): significant toxicity | inhibition of herpes simplex viruses in vitro (HSV): potent inhibitors

O=S(=O)(O)OC1C(OS(=O)(=O)O)C(OS(=O)(=O)O)C(OS(=O)(=O)O)C(OS(=O)(=O)O)C1OS(=O)(=O)O (stereo not drawn) [Inositol hexasulfate]
In vitro activity (HIV [1]): HIV

Mannan sulfate
inhibition of HIV replication (HIV [1]): inhibit HIV replication | In vitro activity (HIV [1]): HIV

lambda-carrageenan
inhibition of HIV replication (HIV [1]): inhibit HIV replication

Rhamnan sulfate
In vitro activity (HSV-1): HSV-1 | In vitro activity (HIV [1]): HIV | In vitro activity (CMV): CMV

B1: Cyanovirin-N (from cyanobacterium): Cyanovirin-N from cyanobacterium (protein, UniProt P81180 1-101, looked up)
Cyanovirin-N: LGKFSQTCYNSAIQGSVLTSTCERTNGGYNTSSIDLNSVIENVDGSLKWQPSNFIETCRNTQLAGSSELAAECKTRAQQFVSTKINLDDHIANIDGTLKYE
In vitro activity (HIV [1]): HIV
